# In patent US5871779A, “Treatment of arthropathies with vanadate compounds or analogues thereof” (Mount Sinai Hospital Corporation, priority 1996, dated 1999):
# pIC50: −log10 of the molar value. Where “and” joins values, the source holds several entries; their conditions need not be identical. Equal entries are not always repeated.
# Assays:
# articular cartilage = assay: electron microscopy of articular cartilage of arthritic rats; type: in vivo, rat
# Procedure: The synovium of rats from each group was examined by electron microscopy. Rats in each group were selected on Day 5 and Day 18 post arthritis onset to study joint morphology. Scanning and Transmission electron microscopy was performed on selected glutaraldehyde fixed joints. One ankle joint of each arthritic control and BMOV-treated rat was removed, critical point dried, and gold sputter-coated for scanning electron microscopy on Day 18 post arthritis onset to examine the trochlear surfaces. Conventional transmission electron microscopy was also performed on the articular cartilage of the trochlear surfaces of naive, arthritic control, and BMOV-treated animals using a Jeol 1200EX.
# tumor growth = assay: different concentrations of BMOV on tumor growth (Example 23); type: in vivo, mice; parameters: Tumour weight / Tumour weight, Means: unit not given here; conditions: for Tumour weight: individual mice
# Procedure: In this experiment we determined the optimum concentration for inhibition of tumor growth as follows.
# Forty mice were subcutaneously injected with tumor cells (10×10^6/ml)on day 1. On day 5, the mice were divided into five groups as follows: Group 1; control, PBS injected; Group 2: 0.1% BMOV injected; Group 3: 0.25% BMOV injected; Group 4: 0.5% BMOV injected and; Group 5: 0.75% BMOV injected. All the mice were injected (I.P.) with 2 mg NAC before injection of BMOV. […] The effective concentrations of BMOV are from 0.1% to 0.75%.
# KB8, KB8-5 and KB85-11 = assay: killing of drug resistant ovarian cancer cell lines KB8, KB8-5 and KB85-11; type: cell-based; conditions: 0-50 μM, 48 hours
# Procedure: The effect of orthovanadate on three ovarian cancer cell lines, KB8, KB8-5 and KB85-11, which have increasing drug resistance, respectively, relative to the parent cell line, KB3-1 was compared. These drug resistant cell lines are not killed by several classes of chemotherapeutic agents such as colchicine, vinblastine and doxorubicin. In the study, cell lines of increasing drug resistance (KB8, KB8-5 and KB-85-11) and the parent cell line, KB3-1, were incubated in media (DMEM) containing 0-50 μM orthovanadate for 48 hours. The cells were harvested and the number of viable cells determined.
# MDAY-D2 tumor = MDAY-D2 tumor growth in vivo, orthovanadate s.c. (Example 6A); parameters: species or system mice; conditions: 10 mg/ml, 50 μl daily s.c., day 14
# Text: In order to examine the ability of vanadyl compounds to reduce tumor formation, growth and metastases, a specific animal model which allows investigation of all of these processes in the same animal was chosen. This model involves the injection of a metastatic haematopoietic cell line, MDAY-D2, into mice subcutaneously. These cells form a tumor at the site of injection and its size can be easily determined. In addition, these cells metastasize to the liver and metastases can be detected histologically after day 17 to 19. This model provides a very sensitive and reproducible approach to investigate the effect of vanadyl compounds on tumor growth and metastases.
# Using the animal model described above, the effect of subcutaneous administration of orthovanadate on tumor growth was investigated. A total of 15 mice were injected subcutaneously with 1×10^5 MDAY-D2 cells on Day 1. On Day 5, small tumors could be observed at the site of injection. Five mice were injected daily with 50 μl of water alone and 10 mice were injected daily with water containing 10 mg/ml orthovanadate. On day 14, the mice were sacrificed. The tumors were removed from all the animals, photographed, and weighed. FIG. 11 compares sizes of tumors from two untreated and two orthovanadate treated mice. […] In animals treated with water alone, four mice had tumors weighing between 1.18 and 1.68 gms.
# MCF7 (WT) = assay: MTT cytotoxicity assay, MCF7 (WT); type: cell-based, human; conditions: MCF7 (WT), 72 hours; read-out: IC50 Value
# Procedure: (§1) The relative cytotoxicity of various compounds on tumor cell lines was investigated as follows. Cytotoxicity was measured by the MTT microculture tetrazolium colorimetric assay for all cell lines. The relative cytotoxicity of Na3 VO4 and VOSO4 was investigated using the following tumor cell lines: P388(WT) murine leukemia, P388 (ADR) murine leukemia, Lewis murine lung, MCF7 (WT) human breast, […] human lung, K562 human erythroleukemia, A431 human epidermal, LS180 human colon and SK-OV-3 human ovarian. The relative cytotoxicity of doxorubicin, Na3 VO4 and VOSO4 was investigated using the following tumor cell lines: P388(WT) murine leukemia, P388 (ADR) murine leukemia, MCF7(WT) human breast and MCF7 (ADR) human breast. The relative cytotoxicity of BMOV, BEOV and naglivan was investigated using the following tumor cell lines: P388(WT) murine leukemia, P388 (ADR) murine leukemia, Lewis murine lung, H460 human lung, K562 human erythroleukemia, and SK-OV-3 human ovarian.
# The cells were plated (number of cells/well was different from cell line to cell depending on the dividing rate) in a 96-well microculture plate 24 hours prior to the delivery of the vanadium compounds. Serial concentrations of solutions of the test compounds (0.05-100 μM) were delivered to the corresponding wells. A blank column (without cells) and a control column (with cells without vanadium) were left. The cells were incubated for 72 hours continuously. An MTT solution was added to each well after this incubation period and the cells were incubated for 4 more hours for the completion of the dyeing process. The medium was removed find DMSO was added to each well. The absorbance of each well was read with a Titertek Multiskan (310C) spectrophotometer at 570 nm. The percentage of the absorbance of each vanadium concentration relative to the control calculated and the value of the 50% growth inhibition concentration (IC50) was obtained from the % control versus concentration plot. Each assay was repeated three times and the reported IC50 values were the mean of these three runs.
# A431 = assay: MTT cytotoxicity assay, A431; type: cell-based, human; conditions: A431, 72 hours
# Procedure: as §1
# The cells were plated (number of cells/well was different from cell line to cell depending on the dividing rate) in a 96-well microculture plate 24 hours prior to the delivery of the vanadium compounds. Serial concentrations of solutions of the test compounds (0.05-100 μM) were delivered to the corresponding wells. […] The absorbance of each well was read with a Titertek Multiskan (310C) spectrophotometer at 570 nm. […]
Structure (SMILES),trochlear surface by scanning electron micrograph (articular cartilage; Day 18),"articular cartilage by transmission electron micrograph (articular cartilage; rat, in vivo)",cartilage damage of joints (articular cartilage; scanning and transmission electron micrographs),Tumour weight (tumor growth; 0.1% BMOV + 2 mg NAC i.p.),"Tumour weight, Means (tumor growth; 0.1% BMOV + NAC)",Tumour weight (tumor growth; 0.25% BMOV + 2 mg NAC i.p.),"Tumour weight, Means (tumor growth; 0.25% BMOV + NAC)",Tumour weight (tumor growth; 0.5% BMOV + 2 mg NAC i.p.),"Tumour weight, Means (tumor growth; 0.5% BMOV + NAC)",Tumour weight (tumor growth; 0.75% BMOV + 2 mg NAC i.p.),"Tumour weight, Means (tumor growth; 0.75% BMOV + NAC)","death of animal (tumor growth; 0.75% BMOV + NAC, mouse 8)","killing of drug resistant cell lines (KB8, KB8-5 and KB85-11)",detectable tumors (MDAY-D2 tumor),tumor size (MDAY-D2 tumor; five mice),pIC50 (MCF7 (WT)),pIC50 (A431)
"Cc1occc(=O)c1[O-].Cc1occc(=O)c1[O-].[O]=[V+2] [BMOV, bis(methylmaltolato) oxovanadium (IV)]",normal trochlear surface,indistinguishable from the naive animal,little cartilage damage and intact cartilage,0.44 and 0.40 and 0.48 and 0.62 and 0.54 and 0.84 and 0.18 and 0.87,0.55,0.14 and 0.23 and 0.73 and 0.04 and 0.21 and 0,0.18,0.40 and 0.20 and 0.07 and 0.17 and 0.06 and 0,0.22,0.07 and 0.16 and 0.08 and 0.21 and 0.13 and 0,0.09,died,,,,,
"[Na+].[Na+].[Na+].[O]=[V]([O-])([O-])[O-] [orthovanadate, sodium orthovanadate]",,,,,,,,,,,,,equally effective,2 mice did not have detectable tumors,less than 0.16 gms,5.07,5.12
